# Read-outs that look alike come from different tables or passages of the source.
# Tests used:
# A1 receptor [1] = biological target: T1, A1 receptor (Callithrix jacchus, UniProt U3EV00); assay: Adenosine receptor binding affinity, marmoset A1
# T1 sequence (U3EV00 1-326): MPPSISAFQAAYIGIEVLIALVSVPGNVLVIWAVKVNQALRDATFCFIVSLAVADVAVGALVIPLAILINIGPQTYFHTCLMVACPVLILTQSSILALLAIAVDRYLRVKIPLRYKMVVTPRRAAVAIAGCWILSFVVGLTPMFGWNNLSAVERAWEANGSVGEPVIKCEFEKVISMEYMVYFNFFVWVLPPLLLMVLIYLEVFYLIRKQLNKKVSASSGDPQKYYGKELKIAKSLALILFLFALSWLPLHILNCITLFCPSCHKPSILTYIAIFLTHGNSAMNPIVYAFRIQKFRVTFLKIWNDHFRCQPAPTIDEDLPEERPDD
# A2A receptor [2] = biological target: A2A receptor (Canis lupus familiaris, UniProt P11617); assay: Adenosine receptor binding affinity, dog A2A
# A1 receptor [3] = biological target: T2, A1 receptor (Rattus norvegicus, UniProt P25099); assay: Adenosine receptor binding affinity, rat A1
# T2 sequence (P25099 1-326): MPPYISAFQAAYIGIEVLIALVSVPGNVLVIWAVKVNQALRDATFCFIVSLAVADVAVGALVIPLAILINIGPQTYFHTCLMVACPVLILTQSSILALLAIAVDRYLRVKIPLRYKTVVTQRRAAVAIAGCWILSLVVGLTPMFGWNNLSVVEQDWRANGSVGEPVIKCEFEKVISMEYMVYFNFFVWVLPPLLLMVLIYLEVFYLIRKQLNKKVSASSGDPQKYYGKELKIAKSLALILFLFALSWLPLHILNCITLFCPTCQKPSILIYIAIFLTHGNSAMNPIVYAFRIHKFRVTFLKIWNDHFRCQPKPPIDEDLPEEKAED
# A2A receptor [4] = biological target: A2A receptor (Rattus norvegicus, UniProt P30543); assay: Adenosine receptor binding affinity, rat A2A
# MPTP-lesion marmosets = assay: Disability reversal score in MPTP-lesion marmosets, PK/PD modelling; assay type: in vivo, marmoset; settings: MPTP-treated marmosets, 0.1-3 mg/kg, Emax PK/PD modelling
# Method: Marmosets received several MPTP regimens (single MPTP regimen: 2 mg/kg, s.c., per day for 3 consecutive days) before the marmosets were used for PK/PD measurements.
# In the absence of any striatal occupancy data in marmoset to relate plasma concentration needed for EC80 A2A occupancy for human dose projection, a daily dose range of 3-24 mg was established based on predicted EC50-80 plasma concentrations of rat striatal occupancy and marmoset disability reversal score.
# A2A receptor [5] = biological target: A2A receptor (Homo sapiens, UniProt P29274); assay: PET study in humans of A2A receptor occupancy with [11C]-SCH442416; assay type: in vivo; settings: for EC50: plasma concentration at PET scan, read-out: estimated EC50 of A2A receptor occupancy (converted)
# Method: There were 3 cohorts in the study, each including 2 subjects.
# In the Screening period (Days −28 to −4) safety screening procedures were performed and subject eligibility was confirmed following a magnetic resonance imaging (MRI) scan (Days −21 to −2). Eligible subjects were admitted to the clinic on Day −1. […] The subjects received the PET tracer [11C]-SCH442416 immediately prior to each PET scan.
# The PET tracer, [11C]-SCH442416 was provided as a radiopharmaceutical in an 11 mL sterile and pyrogen free type 1 glass vial as a solution for intravenous administration. The [11C]-SCH442416 solution consisted of up to 10% ethanol and 90% saline and was administered as an intravenous bolus in approximately […] of the saline/ethanol solution over approximately 20 seconds. Each subject received a maximum of 500 MBq of [11C]-SCH442416 for each PET scan.
# PET data were analysed using the simplified reference tissue method (SRTM). […] The SRTM implementation employed directly estimated the binding potential relative to the non-displaceable component (BPND), which can be thought of as a measure of specific binding.
# Receptor occupancy (RO) in a region of interest (ROI) can then be calculated directly as: RO=100×(1−BPND(post-dose)/BPND(baseline))
# Binding potential and estimated RO were listed and presented graphically versus CPET.
# [6] = PET study, pharmacokinetic assessments; assay type: in vivo; settings: human, plasma, single oral doses 0.5 to 5 mg
# Description: The pharmacokinetic parameters of compound 504 were estimated using non-compartmental analysis.
# [7] = Plasma exposure in Long Evans rats; assay type: in vivo; settings: rat
# Method: A minimum of 400 μL of whole blood was collected via saphenous bleed at 10 min, 20 min, 60 min, and 120 min post drug administration, i.e. at time points that coincided with the activity study (and phase 2: 5-choice experiments). Blood was collected and transferred into K3 EDTA tubes. The tubes were allowed to sit at room temperature for approximately 2 minutes and placed on wet ice until centrifugation. Blood was spun in the centrifuge with speed of 3,500 rpm for 15 minutes at 4° C. Plasma was separated and placed into a labeled 0.75 ml Matrix tube and capped. Plasma tubes were placed into a Matrix rack and stored in a −80° C. freezer. At the final time point (120 minutes post drug administration) following blood collection by cardiac puncture, the brain tissue was extracted and hemisected along the midline. One hemisphere, without the cerebellum, was placed in the 15 ml pre-weighed brain tube while the other portion was disposed. The brain tubes were weighed, frozen on dry ice, and stored at −80 C. Brain tissue and plasma samples were shipped on dry ice to Sponsor. Blood and brain levels of compound 504 were to be conducted by the Sponsor.
# A2A receptor (Homo sapiens, UniProt P29274), sequence (P29274 whole entry): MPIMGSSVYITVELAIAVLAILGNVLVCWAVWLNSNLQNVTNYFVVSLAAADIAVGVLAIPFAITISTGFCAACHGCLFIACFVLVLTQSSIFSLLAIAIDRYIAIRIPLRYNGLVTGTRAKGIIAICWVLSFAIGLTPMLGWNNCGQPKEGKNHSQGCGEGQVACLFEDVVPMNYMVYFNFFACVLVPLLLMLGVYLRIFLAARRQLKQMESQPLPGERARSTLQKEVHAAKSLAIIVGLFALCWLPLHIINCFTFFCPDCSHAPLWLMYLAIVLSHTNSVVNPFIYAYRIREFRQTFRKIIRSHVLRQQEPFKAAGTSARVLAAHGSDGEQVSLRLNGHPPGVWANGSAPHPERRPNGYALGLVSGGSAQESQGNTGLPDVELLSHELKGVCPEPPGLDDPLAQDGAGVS
# A2A receptor (Canis lupus familiaris, UniProt P11617), sequence (P11617 whole entry): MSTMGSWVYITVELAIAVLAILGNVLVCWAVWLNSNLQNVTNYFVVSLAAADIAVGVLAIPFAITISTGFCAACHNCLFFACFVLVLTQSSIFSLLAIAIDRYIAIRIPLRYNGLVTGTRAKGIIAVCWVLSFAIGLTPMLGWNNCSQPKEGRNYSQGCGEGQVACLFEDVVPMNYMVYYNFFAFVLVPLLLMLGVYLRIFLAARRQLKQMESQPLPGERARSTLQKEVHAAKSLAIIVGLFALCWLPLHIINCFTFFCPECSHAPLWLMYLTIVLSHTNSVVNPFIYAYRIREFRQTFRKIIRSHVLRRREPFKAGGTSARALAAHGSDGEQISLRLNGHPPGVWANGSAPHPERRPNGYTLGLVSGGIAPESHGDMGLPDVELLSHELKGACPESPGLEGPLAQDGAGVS
# A2A receptor (Rattus norvegicus, UniProt P30543), sequence (P30543 whole entry): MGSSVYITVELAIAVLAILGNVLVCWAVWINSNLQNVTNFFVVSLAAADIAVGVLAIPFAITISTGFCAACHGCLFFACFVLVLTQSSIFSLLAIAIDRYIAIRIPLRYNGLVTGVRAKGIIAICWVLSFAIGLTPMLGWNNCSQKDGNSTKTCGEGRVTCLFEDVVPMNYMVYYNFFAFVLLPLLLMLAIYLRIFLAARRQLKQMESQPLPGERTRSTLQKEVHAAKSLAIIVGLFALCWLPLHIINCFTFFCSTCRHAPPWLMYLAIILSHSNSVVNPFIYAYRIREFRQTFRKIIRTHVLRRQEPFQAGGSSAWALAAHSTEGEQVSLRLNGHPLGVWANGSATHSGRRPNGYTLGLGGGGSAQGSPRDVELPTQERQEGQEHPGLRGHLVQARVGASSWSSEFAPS
compound,measurement,setting,value
Cc1ccc(C(=O)Nc2nc(-c3ccco3)c(C(=O)C3CCOCC3)s2)cn1 [Compound 504],Ki,A1 receptor [1],305 ± 6.6 nM
same,Ki,A2A receptor [2],0.283 ± 0.0269 nM
same,Ki,A1 receptor [3],50.7 ± 3.18 nM
same,Ki,A2A receptor [4],0.1 ± 0.0072 nM
same,EC80 plasma concentration for disability reversal score,MPTP-lesion marmosets,0.175 µg/mL
same,estimated Emax of A2A receptor occupancy,"A2A receptor [5]; globus pallidus, Emax model vs CPET",101%
same,EC50,A2A receptor [5]; globus pallidus,173 nM
same,EC50,A2A receptor [5]; putamen,78 nM
same,dosage sufficient to reach an occupancy of 80%,"A2A receptor [5]; single oral dose, healthy young men",≤ 3 mg
same,Tmax,[6],1 to 2 h
same,plasma concentrations,[7]; oral 0.01-0.1 mg/kg,100 to 450 ng/mL
same,plasma levels,"[7]; oral 0.03-0.1 mg/kg, 60 min and 90 min sampling",150 to 400 ng/mL

# Reference: US20180125835A1, “Dosage and Use of an A2A Antagonist” (H. Lundbeck A/S, priority 2014, published 2018)
